Reference: patent US20040110731A1, “Photodynamic therapy for the treatment of non-melanoma skin cancer” (priority 2002, published 2004)

Legend:
[1] = test system: multiple non-melanoma skin tumors; assay: Verteporfin PDT in patients, visual assessment of treatment sites for clinical complete response (tumor free); assay type: in vivo, human; conditions: for Clinical Complete Response (percentage of treatment sites judged free of tumors): 14 mg/m^2 BPD-MA IV
Procedure: (§1) Visudyne^1 was diluted to 30 ml with 5% dextrose in water. This solution was then administered intravenously by a ten minute infusion to fifty-four patients having multiple non-melanoma skin tumors. The final concentration of BPD-MA administered was 14 mg per m^2 of body surface area. The body surface area was calculated by taking the square root of the […] of (height (cm)×weight (kg))÷3600. ^1 available from Movartis Opthalmics, Duluth, Ga. 30097, USA.
(§2) One to three hours after the start of drug infusion the patients either had their tumors treated with a light dose of 60 or 120 J/cm^2 (as comparative examples) or with a light dose of 180 J/cm^2 according to the invention. The light doses were all of red (688 nm) LED light with a fluence rate of 200 mW/cm^2. A total of 421 tumors were treated. 194 received 60 J/cm^2, 117 received 120 J/cm^2, and 110 received 180 J/cm^2.
Tumors were examined for clinical response after 3 months.
(§3) The efficacy of the treatment and the cosmetic outcome were assessed at 6 months and 24 months from the start of treatment. As a measure of efficacy, each treatment site was visually assessed by a physician to see if it was tumor free. The percentage of treatment sites that were judged to be free of tumors is shown in Table 1 (Clinical Complete Response). The treatment sites were also visually graded by the physician to assess the Cosmetic Outcome. Each tumor site was graded as an excellent, good, satisfactory, or less than satisfactory based on the color, profile, and texture of each treated site.

[2] = Verteporfin PDT in patients, physician visual grading of cosmetic outcome of treated sites (color, profile, texture); assay type: in vivo, human; conditions: 14 mg/m^2 BPD-MA IV
Procedure: as §1, §2, §3

[3] = test system: non-melanoma skin cancers; conditions: cited from earlier work
[4] = 6 months, light dose 60 J/cm^2 (comparative), 688 nm
[5] = 6 months, light dose 120 J/cm^2 (comparative), 688 nm
[6] = 6 months, light dose 180 J/cm^2, 688 nm
[7] = 24 months, light dose 60 J/cm^2 (comparative), 688 nm
[8] = 24 months, light dose 120 J/cm^2 (comparative), 688 nm
[9] = 24 months, light dose 180 J/cm^2, 688 nm

With “benzoporphyrin derivative monoacid A ring [Visudyne]” the “Clinical response of tumors” value ([1]; 3 months, tumors on six patients of the comparative 60 J/cm^2 group) was “no response”, the “Clinical Complete Response (percentage of treatment sites judged free of tumors)” value [1, 4] was 78.3% and the “Clinical Complete Response (percentage of treatment sites judged free of tumors)” value [1, 5] was 88.5%. For the same substance, the “Clinical Complete Response (percentage of treatment sites judged free of tumors)” value [1, 6] was 98.0%, the “Clinical Complete Response (percentage of treatment sites judged free of tumors)” value [1, 7] was 51.3% and the “Clinical Complete Response (percentage of treatment sites judged free of tumors)” value [1, 8] was 78.6%. The “Clinical Complete Response (percentage of treatment sites judged free of tumors)” value [1, 9] was 95.4%, the “Tumor Cosmetic Outcome (percentage of treatment sites judged satisfactory or better)” value [2, 4] was 90.6% and the “Tumor Cosmetic Outcome (percentage of treatment sites judged satisfactory or better)” value [2, 5] was 87.5%. The “Tumor Cosmetic Outcome (percentage of treatment sites judged satisfactory or better)” value [2, 6] was 64.8%, the “Tumor Cosmetic Outcome (percentage of treatment sites judged satisfactory or better)” value [2, 7] was 91.8% and the “Tumor Cosmetic Outcome (percentage of treatment sites judged satisfactory or better)” value [2, 8] was 76.4%. The “Tumor Cosmetic Outcome (percentage of treatment sites judged satisfactory or better)” value [2, 9] was 85.5%, the Clinical response ([3]; 60 J/cm^2) was “relatively poor clinical response” and the Cosmetic outcome ([3]; 180 J/cm^2) was “relatively poor cosmetic outcome”. The “Cosmetic results with tumor clearing” value ([3]; light fluence 120 J/cm^2) was “good to excellent”.
